Blank lines part the entries; values can stand above or below the compound they belong to.
What was measured:
[1] = tested on: IL-6; test: IL-6 expression in RAW 264 macrophages; format: cell-based; conditions: added to calcitriol; macrophages cultured alone
Procedure: (§1) RAW 264 macrophages and 3T3-L1 preadipocytes (American Type Culture Collection) were incubated at a density of 8000 cells/cm2 (10 cm2 dish) and grown in Dulbecco's modified Eagle's medium (DMEM) containing 10% FBS and antibiotics (adipocyte medium) at 37° C. in 5% CO2 in air. Confluent 3T3-L1 preadipocytes were induced to differentiate with a standard differentiation medium consisting of DMEM-F10 (1:1, vol/vol) medium supplemented with 1% FBS, 1 μM dexamethasone, IBMX (0.5 mM) and antibiotics (1% Penicillin-Streptomycin). Preadipocytes were maintained in this differentiation medium for 3 days and subsequently cultured in adipocyte medium. Cultures were re-fed every 2-3 days to allow 90% cells to reach fully differentiation for 3T3-L1 adipocytes or grow to a confluence for RAW 264 before conducting chemical treatment.
(§2) Human adipocytes (Zen-Bio, Inc.), 3T3-L1 adipocytes, RAW264 macrophages were obtained and co-cultured by using transwell inserts with 0.4 μm porous membranes (Corning) to separate adipocytes and macrophages. All data are expressed as mean±SEM. Data were evaluated for statistical significance by analysis of one-way or two-way variance (ANOVA; means with different letter differ, p<0.05).
(§3) Adipocyte and muscle 18s, CD14, TNFα, MIP, M-CSF, IL-6 and MCP-1 were quantitatively measured using a Smart Cycler Real Time PCR System (Cepheid, Sunnyvale, Calif.) with a TaqMan 1000 Core Reagent Kit (Applied Biosystems, Branchburg, N.J.). The primers and probe sets were obtained from Applied Biosystems TaqMan® Assays-on-Demand™ Gene Expression primers and probe set collection according to manufacture's instruction. […] Reactions of quantitative RT-PCR for standards and unknown samples were also performed according to the instructions of Smart Cycler System (Cepheid, Sunnyvale, Calif.) and TaqMan Real Time PCR Core Kit (Applied Biosystems, Branchburg, N.J.). The mRNA quantitation for each sample was further normalized using the corresponding 18s quantitation.

[2] = tested on: TNFα; test: TNFα expression in RAW 264 macrophages; format: cell-based; conditions: added to calcitriol; macrophages cultured alone
Procedure: as §1, §2, §3

[3] = tested on: 3T3-L1 adipocytes; test: DNA synthesis / cell proliferation (CyQUANT); format: cell-based, murine; conditions: 48 hours
Procedure: (§4) 3T3-L1 preadipocytes were incubated at a density of 8000 cells/cm^2 (10 cm^2 dish) and grown in Dulbecco's modified Eagle's medium (DMEM) containing 10% FBS and antibiotics (adipocyte medium) at 37° C. in 5% CO2 in air. Confluent preadipocytes were induced to differentiate with a standard differentiation medium consisting of DMEM-F 10 (1:1, vol/vol) medium supplemented with 1% FBS, 1 μM dexamethasone, IBMX (0.5 mM) and antibiotics (1% Penicillin-Streptomycin). Preadipocytes were maintained in this differentiation medium for 3 days and subsequently cultured in adipocyte medium. Cultures were re-fed every 2-3 days to allow 90% of cells to reach full differentiation before conducting chemical treatment. Chemicals were freshly diluted in adipocyte medium before treatment. Cells were washed with fresh adipocyte medium, re-fed with medium containing the different treatments, and incubated at 37° C. in 5% CO2 in air before analysis. Cell viability was measured via trypan blue exclusion. Cells were plated in DMEM with different treatment in duplicate in 96-well plates. After 48 h, a CyQUANT Cell Proliferation Kit (Molecular Probes, Eugene, Oreg.) was used following the manufacturer's protocol a microplate fluorometer (Packard Instrument Company, Inc., Downers Grove, Ill.) was used to measure CyQUANT fluorescence. Cell viability was determined by Trypan blue exclusion examination.

[4] = tested on: cyclin A; test: Cyclin A expression in 3T3-L1 adipocytes; format: cell-based, murine; conditions: added to glucose 30 mmol/L, 48 hours; nifedipine 10 μmol/L
Procedure: (§5) 3T3-L1 preadipocytes were incubated at a density of 8000 cells/cm^2 (10 cm^2 dish) and grown in Dulbecco's modified Eagle's medium (DMEM) containing 10% FBS and antibiotics (adipocyte medium) at 37° C. in 5% CO2 in air. Confluent preadipocytes were induced to differentiate with a standard differentiation medium consisting of DMEM-F 10 (1:1, vol/vol) medium supplemented with 1% FBS, 1 μM dexamethasone, IBMX (0.5 mM) and antibiotics (1% Penicillin-Streptomycin). Preadipocytes were maintained in this differentiation medium for 3 days and subsequently cultured in adipocyte medium. Cultures were re-fed every 2-3 days to allow 90% of cells to reach full differentiation before conducting chemical treatment. Chemicals were freshly diluted in adipocyte medium before treatment. […] Cell viability was measured via trypan blue exclusion. Adipocyte 18s, cyclin A, NADPH oxidase, and UCP2 were quantitatively measured using a Smart Cycler Real Time PCR System (Cepheid, Sunnyvale, Calif.) with a TaqMan 1000 Core Reagent Kit (Applied Biosystems, Branchburg, N.J.). […] Reactions of quantitative RT-PCR for standards and unknown samples were also performed according to the instructions of Smart Cycler System (Cepheid, Sunnyvale, Calif.) and TaqMan Real Time PCR Core Kit (Applied Biosystems, Branchburg, N.J.). The mRNA quantitation for each sample was further normalized using the corresponding 18s quantitation.

[5] = tested on: ROS production in cultured 3T3-L1 adipocytes; test: ROS production in cultured adipocytes (H2-DCFDA); format: cell-based, murine; conditions: 48 hours
Procedure: as §4, with “exclusion. […]” for “exclusion.”, “loaded” for “plated in DMEM”, “H2-DCFDA (2 μmol/L) 30 minute before the end of the incubation period (48 h).” for “different treatment in duplicate in 96-well plates.”, “washing twice with PBS, cells were scraped and disrupted by sonication on ice (20s). Fluorescence (emission 543 nm or 527 nm) and DNA content were then measured as described previously. The intensity of fluorescence” for “48 h, a CyQUANT Cell Proliferation Kit (Molecular Probes, Eugene, Oreg.)”, “expressed as arbitary units per ng DNA.” for “used following the manufacturer's protocol a microplate fluorometer (Packard Instrument Company, Inc., Downers Grove, Ill.) was used to measure CyQUANT fluorescence. Cell viability was determined by Trypan blue exclusion examination.”

[6] = tested on: Mitochondrial potential in cultured wild-type 3T3-L1 adipocytes; test: Mitochondrial membrane potential (JC-1); format: cell-based, murine; conditions: GDP 100 μmol/L with H2O2 100 nmol/L, 48 hours
Procedure: 3T3-L1 preadipocytes were incubated at a density of 8000 cells/cm^2 (10 cm^2 dish) and grown in Dulbecco's modified Eagle's medium (DMEM) containing 10% FBS and antibiotics (adipocyte medium) at 37° C. in 5% CO2 in air. Confluent preadipocytes were induced to differentiate with a standard differentiation medium consisting of DMEM-F 10 (1:1, vol/vol) medium supplemented with 1% FBS, 1 μM dexamethasone, IBMX (0.5 mM) and antibiotics (1% Penicillin-Streptomycin). Preadipocytes were maintained in this differentiation medium for 3 days and subsequently cultured in adipocyte medium. Cultures were re-fed every 2-3 days to allow 90% of cells to reach full differentiation before conducting chemical treatment. Chemicals were freshly diluted in adipocyte medium before treatment. […] Cell viability was measured via trypan blue exclusion.
Mitochondrial membrane potential was analyzed fluorometrically with a lipophilic cationic dye JC-1 (5,5′,6,6′-tetrachloro-1,1′,3,3′-tetraethylbenzimidazol carbocyanine iodide) using a mitochondrial potential detection kit (Biocarta, San Diego, Calif.). Mitochondrial potential was determined as the ratio of red fluorescence (excitation 550 nm, emission 600 mn) and green fluorescence (excitation 485 nm, emission 535 nm) using a fluorescence microplate reader.

[7] = tested on: NADPH oxidase; test: NADPH oxidase expression in 3T3-L1 adipocytes; format: cell-based, murine; conditions: added to glucose 30 mmol/L, 48 hours; nifedipine 10 μmol/L
Procedure: as §5

[8] = tested on: adiponectin; test: Adiponectin expression in differentiated Zen-bio human adipocytes; format: cell-based; conditions: 10 nmol/L 1α, 25-(OH)2-D3 or 10 μmol/L nifedipine, 48 h; p=0.377
Procedure: (§6) Human pre-adipocytes used in this study were supplied by Zen-Bio (Research Triangle, N.C.). […] The cells are isolated from the stromal vascular fraction of human subcutaneous adipose tissue and differentiated in vitro as follows: […] Preadipocytes were maintained in this differentiation medium for 3 days and subsequently cultured in adipocyte medium in which BRL49653 and MIX were omitted. Cultures were re-fed every 2-3 days till fully differentiated. Cells were incubated in serum free medium overnight before chemical treatment. Chemicals were freshly diluted in adipocyte medium before treatment. […] Cell viability was measured via trypan blue exclusion. Adipocyte and muscle 18s, TNFα, IL-6, IL-8, IL-15 and adiponectin were quantitatively measured using a smart cycler real-time PCR system (Cepheid, Sunnyvale, Calif.) with a TaqMan 1000 Core Reagent Kit (Applied Biosystems, Branchburg, N.J.). […] Reactions of quantitative RT-PCR for standards and unknown samples were also performed according to the instructions of Smart Cycler System (Cepheid, Sunnyvale, Calif.) and TaqMan Real Time PCR Core Kit (Applied Biosystems, Branchburg, N.J.). The mRNA quantitation for each sample was further normalized using the corresponding 18s quantitation.

[9] = tested on: TNFα; test: TNFα expression in differentiated 3T3-L1 adipocytes; format: cell-based, mouse; conditions: nifedipine 10 μmol/L alone, 48 h
Procedure: 3T3-L1 pre-adipocytes were incubated at a density of 8000 cells/cm^2 (10 cm^2 dish) and grown in Dulbecco's modified Eagle's medium (DMEM) containing 10% FBS and antibiotics (adipocyte medium) at 37° C. in 5% CO2 in air. Confluent pre-adipocytes were induced to differentiate with a standard differentiation medium consisting of DMEM-F10 (1:1, vol/vol) medium supplemented with 1% fetal bovine serum (FBS), 1 μM dexamethasone, isobutylmethylxanthine (IBMX) (0.5 mM) and antibiotics (1% Penicillin-Streptomycin). Pre-adipocytes were maintained in this differentiation medium for 3 days and subsequently cultured in adipocyte medium. Cultures were re-fed every 2-3 days to allow 90% cells to reach fully differentiation before conducting chemical treatment. […] Cell viability was measured via trypan blue exclusion. Adipocyte and muscle 18s, TNFα, IL-6, IL-8, IL-15 and adiponectin were quantitatively measured using a smart cycler real-time PCR system (Cepheid, Sunnyvale, Calif.) with a TaqMan 1000 Core Reagent Kit (Applied Biosystems, Branchburg, N.J.). […] Reactions of quantitative RT-PCR for standards and unknown samples were also performed according to the instructions of Smart Cycler System (Cepheid, Sunnyvale, Calif.) and TaqMan Real Time PCR Core Kit (Applied Biosystems, Branchburg, N.J.). The mRNA quantitation for each sample was further normalized using the corresponding 18s quantitation.

[10] = tested on: IL-15; test: IL-15 expression in differentiated Zen-bio human adipocytes; format: cell-based; conditions: 10 nmol/L 1α, 25-(OH)2-D3 or 10 μmol/L nifedipine, 48 h; p=0.473
Procedure: as §6

[11] = added to glucose 30 mmol/L, nifedipine 10 μmol/L

SMILES: O=[N+]([O-])c1ccc(O)c([N+](=O)[O-])c1 [DNP]
- effect on calcitriol stimulated IL-6 expression [1]: blocked
- effect on calcitriol stimulated TNFα expression [2]: blocked

- effect on NADPH oxidase expression [7]: suppressed
SMILES: Nc1nc2c(ncn2[C@@H]2O[C@H](COP(=O)(O)OP(=O)(O)O)[C@@H](O)[C@H]2O)c(=O)[nH]1 [GDP]
- augmentation of the stimulation of cell proliferation by H2O2 ([3]; GDP 100 μmol/L with H2O2 100 nmol/L, p<0.005): 183%
- effect on glucose induced DNA synthesis [3, 11]: augmented
- effect on glucose stimulated cyclin A expression [4]: augmented
- increase of ROS production compared to H2O2 treatment alone ([5]; GDP 100 μmol/L with H2O2 100 nmol/L, p<0.01): 24%
- effect on high glucose induced ROS production [5, 11]: further stimulated ROS production compared to glucose alone
- augmentation of the H2O2 effect on mitochondrial potential [6]: 10%

SMILES: COC(=O)C1=C(C)NC(C)=C(C(=O)OC)C1c1ccccc1[N+](=O)[O-] [nifedipine]
- effect on adiponectin expression [8]: no effect
- effect on TNFα expression, alone [9]: no effect
- effect on IL-15 expression [10]: no effect
- inhibition of H2O2 induced ROS production ([5]; nifedipine 10 μmol/L with H2O2 100 nmol/L, p<0.003): 25%

Reference: US20070092577A1, “Dietary calcium for reducing the production of reactive oxygen species” (University of Tennessee Research Foundation, priority 2005, published 2007)
